Columns and labels:
[1] = Growth inhibition of human DU145 cells after 48 hrs by SRB assay; type: functional; settings: DU-145, 48 h
NCI-H23 = assay: Growth inhibition of human NCI-H23 cells after 48 hrs by SRB assay; type: functional; settings: NCI-H23, 48 h
[2] = Growth inhibition of human SF268 cells after 48 hrs by SRB assay; type: functional; settings: SF-268, 48 h
NCI-H322M = assay: Growth inhibition of human NCI-H322M cells at 10 uM after 48 hrs by SRB assay; type: functional; settings: read-out: GI
[3] = Growth inhibition of human IGROV1 cells at 10 uM after 48 hrs by SRB assay; type: functional; settings: IGROV-1, 48 h, read-out: GI
[4] = Growth inhibition of human LOXIMVI cells at 10 uM after 48 hrs by SRB assay; type: functional; settings: LOX IMVI, read-out: GI
SK-MEL-2 = assay: Growth inhibition of human SK-MEL-2 cells at 10 uM after 48 hrs by SRB assay; type: functional; settings: SK-MEL-2, 48 h, read-out: GI
A498 [5] = assay: Growth inhibition of human A498 cells at 10 uM after 48 hrs by SRB assay; type: functional; settings: A498, 48 h, read-out: GI
[6] = Growth inhibition of human UACC257 cells at 10 uM after 48 hrs by SRB assay; type: functional; settings: UACC-257, 48 h, read-out: GI
[7] = Growth inhibition of human SNB19 cells at 10 uM after 48 hrs by SRB assay; type: functional; settings: SNB-19, 48 h, read-out: GI
[8] = Growth inhibition of human OVCAR3 cells after 48 hrs by SRB assay; type: functional; settings: OVCAR-3, 48 h
ACHN = assay: Growth inhibition of human ACHN cells at 10 uM after 48 hrs by SRB assay; type: functional; settings: read-out: GI
SK-MEL-5 [9] = assay: Growth inhibition of human SK-MEL-5 cells after 48 hrs by SRB assay; type: functional; settings: SK-MEL-5, 48 h
[10] = molecular target: Vascular endothelial growth factor receptor 2 (Homo sapiens, UniProt P35968); assay: Inhibition of VEGFR-2 (unknown origin) after 40 mins by Kinase-GloPlus luminescence assay
Vascular endothelial growth factor receptor 2, sequence (P35968 whole entry): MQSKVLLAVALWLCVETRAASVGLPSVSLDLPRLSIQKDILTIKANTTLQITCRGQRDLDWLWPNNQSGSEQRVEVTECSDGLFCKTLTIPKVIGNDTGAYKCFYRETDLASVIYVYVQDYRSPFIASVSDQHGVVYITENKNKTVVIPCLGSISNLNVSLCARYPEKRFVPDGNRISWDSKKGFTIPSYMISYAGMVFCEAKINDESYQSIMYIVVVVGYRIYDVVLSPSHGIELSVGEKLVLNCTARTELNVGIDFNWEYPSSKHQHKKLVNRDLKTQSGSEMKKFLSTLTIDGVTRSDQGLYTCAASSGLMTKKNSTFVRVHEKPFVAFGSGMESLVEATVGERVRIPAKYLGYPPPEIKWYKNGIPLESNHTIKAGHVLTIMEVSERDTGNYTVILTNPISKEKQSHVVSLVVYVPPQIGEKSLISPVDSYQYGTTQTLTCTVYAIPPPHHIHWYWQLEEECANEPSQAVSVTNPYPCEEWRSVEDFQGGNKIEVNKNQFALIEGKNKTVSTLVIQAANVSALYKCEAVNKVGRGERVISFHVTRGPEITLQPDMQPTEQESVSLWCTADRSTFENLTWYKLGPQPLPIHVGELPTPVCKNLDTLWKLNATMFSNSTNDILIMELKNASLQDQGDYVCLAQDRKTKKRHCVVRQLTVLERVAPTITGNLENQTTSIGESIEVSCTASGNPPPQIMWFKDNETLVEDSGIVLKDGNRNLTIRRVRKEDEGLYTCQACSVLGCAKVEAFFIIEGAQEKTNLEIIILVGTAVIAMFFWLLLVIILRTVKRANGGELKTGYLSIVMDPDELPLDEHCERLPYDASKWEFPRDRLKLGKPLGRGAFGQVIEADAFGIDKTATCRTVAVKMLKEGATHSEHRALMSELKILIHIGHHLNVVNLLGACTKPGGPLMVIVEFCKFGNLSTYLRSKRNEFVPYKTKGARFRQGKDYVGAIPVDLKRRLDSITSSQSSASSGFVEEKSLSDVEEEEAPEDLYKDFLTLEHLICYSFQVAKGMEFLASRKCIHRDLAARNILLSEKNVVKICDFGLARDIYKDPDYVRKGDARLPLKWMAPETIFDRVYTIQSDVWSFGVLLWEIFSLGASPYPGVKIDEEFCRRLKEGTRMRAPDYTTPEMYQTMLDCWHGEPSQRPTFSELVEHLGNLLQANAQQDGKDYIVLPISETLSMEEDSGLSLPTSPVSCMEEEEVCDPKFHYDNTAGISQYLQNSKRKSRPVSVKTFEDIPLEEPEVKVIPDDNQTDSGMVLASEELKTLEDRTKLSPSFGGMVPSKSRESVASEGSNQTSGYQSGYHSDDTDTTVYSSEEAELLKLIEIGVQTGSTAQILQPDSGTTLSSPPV

[11] = Growth inhibition of human SF295 cells after 48 hrs by SRB assay; type: functional; settings: SF-295, 48 h
[12] = Growth inhibition of human OVCAR8 cells after 48 hrs by SRB assay; type: functional; settings: OVCAR-8, 48 h
A498 [13] = assay: Growth inhibition of human A498 cells after 48 hrs by SRB assay; type: functional; settings: A498, 48 h
[14] = Growth inhibition of human HL-60(TB) cells at 10 uM after 48 hrs by SRB assay; type: functional; settings: HL-60, 48 h, read-out: GI
[15] = Growth inhibition of human HL-60(TB) cells after 48 hrs by SRB assay; type: functional; settings: HL-60, 48 h
SR = assay: Growth inhibition of human SR cells at 10 uM after 48 hrs by SRB assay; type: functional; settings: read-out: GI
NCI-H460 = assay: Growth inhibition of human NCI-H460 cells at 10 uM after 48 hrs by SRB assay; type: functional; settings: NCI-H460, 48 h, read-out: GI
[16] = molecular target: Hepatocyte growth factor receptor (Homo sapiens) (UniProt P08581); assay: Inhibition of c-Met (unknown origin) at 10 uM
Hepatocyte growth factor receptor (Homo sapiens), sequence (P08581 whole entry): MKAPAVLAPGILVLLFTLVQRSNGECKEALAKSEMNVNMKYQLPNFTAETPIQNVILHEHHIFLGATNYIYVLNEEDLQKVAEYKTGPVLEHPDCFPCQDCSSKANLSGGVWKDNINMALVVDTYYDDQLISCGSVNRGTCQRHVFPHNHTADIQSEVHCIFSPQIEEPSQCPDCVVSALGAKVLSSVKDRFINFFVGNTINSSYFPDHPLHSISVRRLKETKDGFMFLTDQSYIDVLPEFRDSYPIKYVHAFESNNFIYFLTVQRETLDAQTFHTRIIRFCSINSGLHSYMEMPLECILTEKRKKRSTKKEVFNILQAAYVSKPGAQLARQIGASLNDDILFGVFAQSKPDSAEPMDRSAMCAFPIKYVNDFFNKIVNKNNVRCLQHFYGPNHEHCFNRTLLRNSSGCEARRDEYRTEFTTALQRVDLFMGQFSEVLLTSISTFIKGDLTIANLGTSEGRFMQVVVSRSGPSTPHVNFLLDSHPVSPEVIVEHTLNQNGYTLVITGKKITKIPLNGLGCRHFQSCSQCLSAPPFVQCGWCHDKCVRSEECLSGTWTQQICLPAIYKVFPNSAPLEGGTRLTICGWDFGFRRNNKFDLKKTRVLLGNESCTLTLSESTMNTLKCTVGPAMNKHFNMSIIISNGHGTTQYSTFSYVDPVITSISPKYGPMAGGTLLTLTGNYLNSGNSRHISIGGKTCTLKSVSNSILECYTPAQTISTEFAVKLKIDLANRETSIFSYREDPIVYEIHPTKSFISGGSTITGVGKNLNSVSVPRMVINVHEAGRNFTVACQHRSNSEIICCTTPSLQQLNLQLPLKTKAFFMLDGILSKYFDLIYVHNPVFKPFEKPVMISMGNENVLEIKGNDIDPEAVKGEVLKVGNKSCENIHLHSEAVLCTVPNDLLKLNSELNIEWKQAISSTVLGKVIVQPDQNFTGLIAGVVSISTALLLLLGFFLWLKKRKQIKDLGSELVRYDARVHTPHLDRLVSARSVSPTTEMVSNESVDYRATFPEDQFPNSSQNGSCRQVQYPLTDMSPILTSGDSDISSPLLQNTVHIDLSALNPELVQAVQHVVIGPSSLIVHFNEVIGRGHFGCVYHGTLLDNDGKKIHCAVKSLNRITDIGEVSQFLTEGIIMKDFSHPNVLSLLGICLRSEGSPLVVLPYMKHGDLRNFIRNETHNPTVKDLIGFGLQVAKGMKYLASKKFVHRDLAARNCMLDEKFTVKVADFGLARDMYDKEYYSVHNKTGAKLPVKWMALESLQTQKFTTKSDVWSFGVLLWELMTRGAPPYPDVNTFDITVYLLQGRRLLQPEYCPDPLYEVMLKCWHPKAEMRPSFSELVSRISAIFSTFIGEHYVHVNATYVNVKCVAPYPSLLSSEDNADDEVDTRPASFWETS

CCRF-CEM = assay: Growth inhibition of human CCRF-CEM cells after 48 hrs by SRB assay; type: functional
[17] = Growth inhibition of human SW620 cells at 10 uM after 48 hrs by SRB assay; type: functional; settings: SW-620, 48 h, read-out: GI
[18] = Growth inhibition of human HCT15 cells after 48 hrs by SRB assay; type: functional; settings: HCT-15, 48 h
NCI-H226 = assay: Growth inhibition of human NCI-H226 cells after 48 hrs by SRB assay; type: functional; settings: NCI-H226, 48 h
[19] = Growth inhibition of human SF539 cells at 10 uM after 48 hrs by SRB assay; type: functional; settings: SF-539, 48 h, read-out: GI
[20] = Growth inhibition of human HCT116 cells after 48 hrs by SRB assay; type: functional; settings: HCT-116, 48 h
[21] = Growth inhibition of human Hs 578T cells at 10 uM after 48 hrs by SRB assay; type: functional; settings: read-out: GI
[22] = Growth inhibition of human Caki1 cells at 10 uM after 48 hrs by SRB assay; type: functional; settings: CAKI-1, 48 h, read-out: GI
[23] = Growth inhibition of human COLO205 cells after 48 hrs by SRB assay; type: functional; settings: COLO 205, 48 h
SK-MEL-5 [24] = assay: Growth inhibition of human SK-MEL-5 cells at 10 uM after 48 hrs by SRB assay; type: functional; settings: SK-MEL-5, 48 h, read-out: GI
NCI-H522 = assay: Growth inhibition of human NCI-H522 cells after 48 hrs by SRB assay; type: functional; settings: NCI-H522, 48 h
KM12 = assay: Growth inhibition of human KM12 cells after 48 hrs by SRB assay; type: functional; settings: KM12, 48 h
MDA-MB-468 = assay: Growth inhibition of human MDA-MB-468 cells after 48 hrs by SRB assay; type: functional; settings: MDA-MB-468, 48 h
[25] = Growth inhibition of human DU145 cells at 10 uM after 48 hrs by SRB assay; type: functional; settings: DU-145, 48 h, read-out: GI
[26] = Growth inhibition of human NCI-ADR-RES cells at 10 uM after 48 hrs by SRB assay; type: functional; settings: read-out: GI
MDA-MB-435 = assay: Growth inhibition of human MDA-MB-435 cells after 48 hrs by SRB assay; type: functional; settings: MDA-MB-435, 48 h
[27] = read-out: LC50 (the source's name)

## COc1ccc(Nc2nccc(Nc3ccc4[nH]ncc4c3)n2)cc1
[1]
  GI50: 3.31 µM
  LC50: 41.7 µM
  TGI: 12.9 µM
NCI-H23
  GI50: 2.35 µM
  TGI: 6.27 µM
NCI-H23; [27]
  CC50: 87.3 µM
[2]
  GI50: 4.2 µM
  TGI: 28.6 µM
[2]; [27]
  CC50: > 100 µM
NCI-H322M
  inhibition of growth at 10 µM: 37%
[3]
  inhibition of growth at 10 µM: 49%
[4]
  inhibition of growth at 10 µM: 81%
SK-MEL-2
  inhibition of growth at 10 µM: 70%
A498 [5]
  inhibition of growth at 10 µM: 63%
[6]
  inhibition of growth at 10 µM: 54%
[7]
  inhibition of growth at 10 µM: 40%
[8]
  GI50: 3.15 µM
  TGI: 10.6 µM
[8]; [27]
  CC50: 44 µM
ACHN
  inhibition of growth at 10 µM: 71%
SK-MEL-5 [9]
  GI50: 2.01 µM
  TGI: 4.75 µM
SK-MEL-5 [9]; [27]
  CC50: 13.1 µM
[10]
  IC50: 0.117 µM
[11]
  GI50: 3.78 µM
  LC50 (concentration killing 50% of cells): 37.1 µM
  TGI: 13.8 µM
[12]
  GI50: 2.24 µM
  TGI: 5.39 µM
[12]; [27]
  CC50: > 100 µM
A498 [13]
  GI50: 4.62 µM
  TGI: 17.2 µM
A498 [13]; [27]
  CC50: 41.4 µM
[14]
  inhibition of growth at 10 µM: 40%
[15]
  GI50: 2.05 µM
  LC50: > 100 µM
  TGI: 4.67 µM
SR
  inhibition of growth at 10 µM: 96%
NCI-H460
  inhibition of growth at 10 µM: 75%
[16]
  inhibition: 42%
CCRF-CEM
  GI50: 2.61 µM
  LC50 (concentration for 50% net cell kill): > 100 µM
  TGI: 4.67 µM
[17]
  inhibition of growth at 10 µM: 75%
[18]
  GI50: 1.9 µM
  LC50: 9.61 µM
  TGI: 4.28 µM
NCI-H226
  GI50: 2.3 µM
  TGI: 5.77 µM
NCI-H226; [27]
  CC50: > 100 µM
[19]
  inhibition of growth at 10 µM: 31%
[20]
  GI50: 2.06 µM
  TGI: 4.91 µM
[20]; [27]
  CC50: 73.1 µM
[21]
  inhibition of growth at 10 µM: 53%
[22]
  inhibition of growth at 10 µM: 62%
[23]
  GI50: 2.59 µM
  LC50: 25.4 µM
  TGI: 7.21 µM
SK-MEL-5 [24]
  inhibition of growth at 10 µM: 98%
NCI-H522
  GI50: 1.86 µM
  LC50: 15.6 µM
  TGI: 4.77 µM
KM12
  GI50: 3.45 µM
  TGI: 24.2 µM
KM12; [27]
  CC50: > 100 µM
MDA-MB-468
  GI50: 1.7 µM
  TGI: 4.55 µM
MDA-MB-468; [27]
  CC50: 20.6 µM
[25]
  inhibition of growth at 10 µM: 68%
[26]
  inhibition of growth at 10 µM: 82%
MDA-MB-435
  GI50: 2.1 µM
  LC50: 20.1 µM
  TGI: 5.7 µM

## Clc1ccc(Nc2nccc(Nc3ccc4[nH]ncc4c3)n2)cc1
NCI-H322M
  inhibition of growth at 10 µM: 25%
[3]
  inhibition of growth at 10 µM: 53%
[4]
  inhibition of growth at 10 µM: 55%
A498 [5]
  inhibition of growth at 10 µM: 61%
[6]
  inhibition of growth at 10 µM: 12%
[7]
  inhibition of growth at 10 µM: 22%
ACHN
  inhibition of growth at 10 µM: 53%
[14]
  inhibition of growth at 10 µM: 48%
SR
  inhibition of growth at 10 µM: 97%
NCI-H460
  inhibition of growth at 10 µM: 59%
[17]
  inhibition of growth at 10 µM: 67%
[19]
  inhibition of growth at 10 µM: 24%
[21]
  inhibition of growth at 10 µM: 38%
[22]
  inhibition of growth at 10 µM: 48%
SK-MEL-5 [24]
  inhibition of growth at 10 µM: 74%
[25]
  inhibition of growth at 10 µM: 50%
[26]
  inhibition of growth at 10 µM: 61%

From ChEMBL document CHEMBL3817755, “Design, synthesis and biological evaluation of indazolepyrimidine based derivatives as anticancer agents with anti-angiogenic and antiproliferative activities” (Medchemcomm, 2016)
